Measurements from ChEMBL document CHEMBL5528058 (J Med Chem, 2024).
Active and inactive are the calls of the source. The calls are words filed in the database; no cut-off is given here.

Legend:
[1] = target: Programmed cell death protein 1/Programmed cell death 1 ligand 1 (Homo sapiens, UniProt Q9NZQ7)
Description: Inhibition of human PD-1/PD-L1 interaction by HTRF analysis

4T1 [2] = test: Antiproliferative activity against mouse 4T1 cells as cell killing incubated for 6 days by CCK-8 assay; settings: 4T1, 144 h
MDA-MB-231 [3] = test: Antitumor immunity activity against human MDA-MB-231 cells co-cultured with human PBMC assessed as cell killing incubated for 12 hrs; type: functional, cell-based
PBMC = test: Induction of cell death in human PBMC cells incubated for 6 days by CCK-8 assay; type: functional, cell-based; settings: time 6.0 day
[4] = Toxicity in BALB/c mouse implanted with mouse 4T1 cells assessed as morphological changes in heart at 5 to 10 mg/kg, IG administered twice a day for 14 days by H and E staining based analysis; type: organism-based; settings: in vivo, po, 336 h, dose 5-10 mg/kg, time 14 day
[5] = Half life in ICR mouse at 1 mg/kg, iv measured upto 24 hrs by LCMS analysis; type: ADME, organism-based; settings: in vivo
4T1 [6] = test: Antitumor activity against mouse 4T1 cells implanted in BALB/c mouse assessed as reduction in ki-67 expression at 10 mg/kg, IG administered twice a day for 14 days by immunohistochemistry analysis; type: functional, organism-based; settings: time 14.0 day
[7] = target: Programmed cell death 1 ligand 1 (Mus musculus, UniProt Q9EP73); test: Binding affinity to his-tagged mouse PD-L1 expressed in HEK293 cells assessed as dissociation constant by SPR analysis
Sequence of Programmed cell death 1 ligand 1 (Q9EP73 whole entry): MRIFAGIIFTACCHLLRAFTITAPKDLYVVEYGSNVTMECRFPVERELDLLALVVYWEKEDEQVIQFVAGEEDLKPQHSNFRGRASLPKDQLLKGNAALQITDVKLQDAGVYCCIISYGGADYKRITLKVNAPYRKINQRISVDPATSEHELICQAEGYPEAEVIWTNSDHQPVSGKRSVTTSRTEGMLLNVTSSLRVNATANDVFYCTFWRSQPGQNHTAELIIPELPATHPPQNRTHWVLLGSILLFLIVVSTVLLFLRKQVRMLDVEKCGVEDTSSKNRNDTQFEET

[8] = Oral bioavailability in ICR mouse at 1 mg/kg measured upto 24 hrs by LCMS analysis; type: ADME, organism-based; settings: in vivo
[9] = Toxicity in BALB/c mouse implanted with mouse 4T1 cells assessed as morphological changes in kidney at 5 to 10 mg/kg, IG administered twice a day for 14 days by H and E staining based analysis; type: organism-based; settings: in vivo, po, 336 h, dose 5-10 mg/kg, time 14 day
[10] = MRT (0 to t) in ICR mouse at 10 mg/kg, IG measured upto 24 hrs by LCMS analysis; type: ADME, organism-based; settings: in vivo, po
MDA-MB-231 [11] = test: Antiproliferative activity against human MDA-MB-231 cells as cell killing incubated for 6 days by CCK-8 assay; settings: MDA-MB-231, 144 h
[12] = Toxicity in BALB/c mouse implanted with mouse 4T1 cells assessed as morphological changes in lung at 5 to 10 mg/kg, IG administered twice a day for 14 days by H and E staining based analysis; type: organism-based; settings: in vivo, po, 336 h, dose 5-10 mg/kg, time 14 day
[13] = Acute toxicity in ICR mouse at 250 to 500 mg/kg, IG measured for 7 days; type: organism-based; settings: in vivo, po, 168 h, dose 250-500 mg/kg, time 7 day
[14] = Toxicity in BALB/c mouse implanted with mouse 4T1 cells assessed as body weight loss at 5 to 10 mg/kg, IG administered twice a day for 14 days; type: organism-based; settings: in vivo, po, 336 h, dose 5-10 mg/kg, time 14 day
[15] = Toxicity in BALB/c mouse implanted with mouse 4T1 cells assessed as morphological changes in spleen at 5 to 10 mg/kg, IG administered twice a day for 14 days by H and E staining based analysis; type: organism-based; settings: in vivo, po, 336 h, dose 5-10 mg/kg, time 14 day
[16] = MRT (0 to infinity) in ICR mouse at 10 mg/kg, IG measured upto 24 hrs by LCMS analysis; type: ADME, organism-based; settings: in vivo, po
[17] = Clearance in ICR mouse at 1 mg/kg, iv measured upto 24 hrs by LCMS analysis; type: ADME, organism-based; settings: in vivo
[18] = Half life in ICR mouse at 10 mg/kg, IG measured upto 24 hrs by LCMS analysis; type: ADME, organism-based; settings: in vivo, po
[19] = AUC (0 to infinity) in ICR mouse at 10 mg/kg, IG measured upto 24 hrs by LCMS analysis; type: ADME, organism-based; settings: in vivo, po
[20] = Toxicity in BALB/c mouse implanted with mouse 4T1 cells assessed as morphological changes in liver at 5 to 10 mg/kg, IG administered twice a day for 14 days by H and E staining based analysis; type: organism-based; settings: in vivo, po, 336 h, dose 5-10 mg/kg, time 14 day
[21] = Toxicity in BALB/c mouse implanted with mouse 4T1 cells assessed as morphological changes in tumor at 5 to 10 mg/kg, IG administered twice a day for 14 days by H and E staining based analysis; type: organism-based; settings: in vivo, po, 336 h, dose 5-10 mg/kg, time 14 day
[22] = MRT (0 to t) in ICR mouse at 1 mg/kg, iv measured upto 24 hrs by LCMS analysis; type: ADME, organism-based; settings: in vivo
[23] = Tmax in ICR mouse at 10 mg/kg, IG measured upto 24 hrs by LCMS analysis; type: ADME, organism-based; settings: in vivo, po
4T1 [24] = test: Antitumor activity against mouse 4T1 cells implanted in BALB/c mouse assessed as tumor growth inhibition at 10 mg/kg, IG administered twice a day for 14 days; settings: 4T1, po, 336 h, read-out: TGI
MDA-MB-231 [25] = test: Induction of cell death in human MDA-MB-231 cells incubated for 6 days by CCK-8 assay; type: functional, cell-based; settings: time 6.0 day
[26] = AUC (0 to t) in ICR mouse at 1 mg/kg, iv measured upto 24 hrs by LCMS analysis; type: ADME, organism-based; settings: in vivo
4T1 [27] = test: Antitumor activity against mouse 4T1 cells implanted in BALB/c mouse assessed as tumor growth inhibition at 5 mg/kg, IG administered twice a day for 14 days; settings: 4T1, po, 336 h, read-out: TGI
[28] = Cmax in ICR mouse at 10 mg/kg, IG measured upto 24 hrs by LCMS analysis; type: ADME, organism-based; settings: in vivo, po
[29] = AUC (0 to t) in ICR mouse at 10 mg/kg, IG measured upto 24 hrs by LCMS analysis; type: ADME, organism-based; settings: in vivo, po
Jurkat = test: Antiproliferative activity against human Jurkat cells as cell killing incubated for 6 days by CCK-8 assay; settings: 144 h
[30] = MRT (0 to infinity) in ICR mouse at 1 mg/kg, iv measured upto 24 hrs by LCMS analysis; type: ADME, organism-based; settings: in vivo
[31] = AUC (0 to infinity) in ICR mouse at 1 mg/kg, iv measured upto 24 hrs by LCMS analysis; type: ADME, organism-based; settings: in vivo
[32] = Toxicity in BALB/c mouse implanted with mouse 4T1 cells assessed as side effect at 5 to 10 mg/kg, IG administered twice a day for 14 days; type: organism-based; settings: in vivo, po, 336 h, dose 5-10 mg/kg, time 14 day
[33] = target: Programmed cell death protein 1 (Homo sapiens, UniProt Q15116); test: Inhibition of human recombinant PD-1 by HTRF analysis
Sequence of Programmed cell death protein 1 (Q15116 whole entry): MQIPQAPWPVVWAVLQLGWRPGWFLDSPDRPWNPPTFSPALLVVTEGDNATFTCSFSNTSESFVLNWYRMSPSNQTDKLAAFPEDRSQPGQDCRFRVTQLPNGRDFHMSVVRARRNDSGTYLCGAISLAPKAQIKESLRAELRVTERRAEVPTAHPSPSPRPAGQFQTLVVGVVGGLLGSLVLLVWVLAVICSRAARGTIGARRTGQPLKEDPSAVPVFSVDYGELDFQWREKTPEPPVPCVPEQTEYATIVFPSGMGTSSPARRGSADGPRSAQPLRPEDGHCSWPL

4T1 [34] = test: Antitumor activity against mouse 4T1 cells implanted in BALB/c mouse assessed as increase in percentage of CD3+ CD4+ cells in spleen at 15 mg/kg, ip qd administered for 14 days by flow cytometry analysis (reference value: 6.72%); type: functional; settings: time 14 day
4T1 [35] = test: Antitumor activity against mouse 4T1 cells implanted in BALB/c mouse assessed as increase in percentage of CD3+ CD8+ cells in tumor at 15 mg/kg, ip qd administered for 14 days by flow cytometry analysis (reference value: 0.64%); type: functional; settings: time 14 day
4T1 [36] = test: Antitumor activity against mouse 4T1 cells implanted in BALB/c mouse assessed as increase in percentage of CD3+ CD8+ cells in spleen at 15 mg/kg, ip qd administered for 14 days by flow cytometry analysis (reference value: 3.34%); type: functional; settings: time 14 day
4T1 [37] = test: Antitumor activity against mouse 4T1 cells implanted in BALB/c mouse assessed as increase in percentage of CD3+ CD4+ cells in tumor at 15 mg/kg, ip qd administered for 14 days by flow cytometry analysis (reference value: 0.32%); type: functional; settings: time 14 day

Sequence of Programmed cell death protein 1/Programmed cell death 1 ligand 1 (Q15116 whole entry): as above
Sequence of Programmed cell death protein 1/Programmed cell death 1 ligand 1 (Q9NZQ7 whole entry): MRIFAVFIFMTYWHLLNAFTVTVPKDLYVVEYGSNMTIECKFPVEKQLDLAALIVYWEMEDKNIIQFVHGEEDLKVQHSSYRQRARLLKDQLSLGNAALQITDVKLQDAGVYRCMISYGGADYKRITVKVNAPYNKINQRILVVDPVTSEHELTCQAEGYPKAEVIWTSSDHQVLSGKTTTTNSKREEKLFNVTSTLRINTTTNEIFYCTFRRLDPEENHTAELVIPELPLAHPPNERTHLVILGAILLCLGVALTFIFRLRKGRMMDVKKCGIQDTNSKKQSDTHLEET

In the case of `Cc1ccccc1-c1cccc(COc2ccc3c(n2)CCN(CCO)C3)c1C`, the IC50 [1] is reported as 406 nM.

Work on `CCOC(=O)CCN1CCc2nc(OCc3cccc(-c4ccccc4F)c3Cl)ccc2C1` yielded an IC50 [1] of 241 nM.

In the case of `Cc1c(COc2ccc3c(n2)CCN(CCO)C3)cccc1-c1ccccc1`, the IC50 [1] is reported as 227 nM.

For `CC(C)Oc1cccc(-c2cccc(NC(=O)c3ccc4c(n3)CCN(CCO)C4)c2Cl)c1F`, the IC50 [1] was 83.5 nM.

Compound `O=C(Nc1cccc(-c2cccc(Cl)c2F)c1Cl)c1ccc2c(n1)CCN(CCO)C2` has an IC50 [1] of 24.2 nM.

For `CCOC(=O)CN1CCc2nc(C(=O)Nc3cccc(-c4cccc(OC(C)C)c4F)c3Cl)ccc2C1`, the IC50 [1] was > 1000 nM.

In the case of `CCOC(=O)CN1CCc2nc(C(=O)Nc3cccc(-c4cccc(Cl)c4F)c3Cl)ccc2C1`, the IC50 [1] is reported as > 1000 nM.

Compound `Cc1c(COc2ccc3c(n2)CCN(CCO)C3)cccc1-c1ccccc1Cl` has an IC50 [1] of 216 nM.

Work on `CC(C(=O)O)N1CCc2nc(OCc3cccc(-c4ccccc4F)c3Cl)ccc2C1` (centres undefined) yielded an IC50 [1] of 31.3 nM.

With `O=C(O)CN1CCc2nc(OCc3cccc(-c4ccccc4F)c3Cl)ccc2C1` the IC50 (4T1 [2]) was 77500 nM, the Activity (MDA-MB-231 [3]) was “Active” and the Activity (PBMC) was “Active”. For the same compound, the Activity [4] was “Non-Toxic”, the half-life [5] was 3.51 h and the Activity (4T1 [6]) was “Active”. The Kd [7] was 392000 nM, the bioavailability [8] was 58% and the Activity [9] was “Non-Toxic”. For the same compound, the MRT last at 24 h [10] was 6.05 h, the IC50 (MDA-MB-231 [11]) was 15400 nM and the Activity [12] was “Non-Toxic”. For the same compound, the Activity [13] was “Non-Toxic”, the Activity [14] was “Non-Toxic” and the Activity [15] was “Non-Toxic”. The MRT inf [16] was 7.35 h, the clearance [17] was 9.55 mL/min/kg and the half-life [18] was 4.95 h. For the same compound, the AUC(0-inf) [19] was 10500 ng·h/mL, the Activity [20] was “Non-Toxic” and the Activity [21] was “Toxic”. It also gave an MRT last at 24 h [22] of 3.7 h, a Tmax [23] of 0.25 h and an inhibition in vivo at 10 mg/kg (4T1 [24]) of 66%. The Activity (MDA-MB-231 [25]) was “Active”, the AUC(0-t) at 24 h [26] was 1800 ng·h/mL and the inhibition in vivo at 5 mg/kg (4T1 [27]) was 49%. The Cmax [28] was 1950 ng/mL, the AUC(0-t) at 24 h [29] was 10200 ng·h/mL and the IC50 (Jurkat) was 53900 nM. For the same compound, the MRT inf [30] was 3.86 h, the AUC(0-inf) [31] was 1820 ng·h/mL and the Activity [32] was “Non-Toxic”.

`O=C(Nc1cccc(-c2cccc(F)c2F)c1Cl)c1ccc2c(n1)CCN(CCO)C2` showed an IC50 [1] of 20.1 nM.

For `NC(=O)CN1CCc2nc(OCc3cccc(-c4ccccc4F)c3Cl)ccc2C1`, the IC50 [1] was 157 nM.

In the case of `Cc1c(COc2ccc3c(n2)CCN(CCO)C3)cccc1-c1ccccc1F`, the IC50 [1] is reported as 170 nM.

In the case of `CCOC(=O)CN1CCc2nc(C(=O)Nc3cccc(-c4cccc(F)c4F)c3Cl)ccc2C1`, the IC50 [1] is reported as 33800 nM.

For `CC(C)OC(=O)CN1CCc2nc(OCc3cccc(-c4ccccc4F)c3Cl)ccc2C1`, the IC50 [1] was 436 nM.

For `CCOC(=O)CN1CCc2nc(C(=O)Nc3cccc(-c4cccc(C#N)c4F)c3Cl)ccc2C1`, the IC50 [1] was > 1000 nM.

Compound `N#Cc1cccc(-c2cccc(NC(=O)c3ccc4c(n3)CCN(CCO)C4)c2Cl)c1F` has an IC50 [1] of 58.8 nM.

`O=C(Nc1cccc(-c2ccccc2F)c1Cl)c1ccc2c(n1)CCN(CCO)C2` showed an IC50 [1] of 21.6 nM.

In the case of `CCOC(=O)C(C)N1CCc2nc(OCc3cccc(-c4ccccc4F)c3Cl)ccc2C1` (centres undefined), the IC50 [1] is reported as 592 nM.

In the case of `COC(=O)CN1CCc2nc(OCc3cccc(-c4ccccc4F)c3Cl)ccc2C1`, the IC50 [1] is reported as 369 nM.

`OCCN1CCc2nc(OCc3cccc(-c4ccccc4Cl)c3F)ccc2C1` gave an IC50 [1] of 101 nM.

Work on `OCCN1CCc2nc(OCc3cccc(-c4ccccc4F)c3F)ccc2C1` yielded an IC50 [1] of 105 nM.

`Cc1c(Nc2nccc3cc(CN4CC[C@@H](O)C4)cnc23)cccc1-c1cccc(-c2nc3ccc(CN4CC[C@@H](C(=O)O)C4)c(C#N)c3o2)c1C` showed an IC50 [33] of 3.1 nM.

Work on `OCCN1CCc2nc(OCc3cccc(-c4ccccc4Cl)c3Cl)ccc2C1` yielded an IC50 [1] of 95.1 nM.

`COc1nc(OCc2cccc(-c3ccccc3)c2C)ccc1CNCCNC(C)=O` gave an IC50 (4T1 [2]) of 5200 nM, an Activity (4T1 [34]) of 5.4% and an IC50 (MDA-MB-231 [11]) of 19300 nM. It also gave an Activity (4T1 [35]) of 1.24%, an Activity (4T1 [36]) of 2.52% and an Activity (4T1 [37]) of 0.58%. For the same compound, the IC50 (Jurkat) was 4330 nM.

`OCCN1CCc2nc(OCc3cccc(-c4ccccc4F)c3Cl)ccc2C1` showed an IC50 [1] of 19.8 nM.
